One assay has as its target HCoV-229E 3CLpro (Human coronavirus 229E, UniProt P0C6X1). Kind of assay: HCoV-229E 3CLpro inhibition assay (FRET). The class given is biochemical.
The target of the next assay is MERS-CoV 3CLpro (Middle East respiratory syndrome-related coronavirus, UniProt K9N7C7). Kind of assay: biochemical.
The next assay addresses SARS-CoV 3CLpro (Severe acute respiratory syndrome coronavirus, UniProt P0C6X7). Kind of assay: biochemical.
Another assay concerns the target SARS-CoV-2 3CLpro (Severe acute respiratory syndrome coronavirus 2, UniProt P0DTD1). Kind of assay: biochemical.

Chain of HCoV-229E 3CLpro (P0C6X1 2966-3267): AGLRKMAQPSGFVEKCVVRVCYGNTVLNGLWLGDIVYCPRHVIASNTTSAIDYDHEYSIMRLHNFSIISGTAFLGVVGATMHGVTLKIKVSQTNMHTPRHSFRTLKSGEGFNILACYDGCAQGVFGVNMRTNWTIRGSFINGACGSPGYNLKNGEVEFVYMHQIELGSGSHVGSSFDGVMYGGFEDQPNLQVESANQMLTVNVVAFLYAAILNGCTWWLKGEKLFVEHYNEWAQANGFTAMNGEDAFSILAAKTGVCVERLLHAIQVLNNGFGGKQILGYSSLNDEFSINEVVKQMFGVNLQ
Chain of MERS-CoV 3CLpro (K9N7C7 3248-3553): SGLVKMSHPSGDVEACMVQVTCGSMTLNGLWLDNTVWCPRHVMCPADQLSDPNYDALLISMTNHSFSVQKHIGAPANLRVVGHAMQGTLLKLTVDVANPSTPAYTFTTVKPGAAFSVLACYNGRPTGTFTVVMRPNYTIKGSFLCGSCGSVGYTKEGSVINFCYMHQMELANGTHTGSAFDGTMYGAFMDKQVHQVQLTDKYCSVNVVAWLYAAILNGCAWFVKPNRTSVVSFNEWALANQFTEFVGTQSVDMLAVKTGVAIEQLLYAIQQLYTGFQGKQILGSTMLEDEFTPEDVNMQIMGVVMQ

As for `CC[C@@H](C)[C@H](NC(=O)C(F)(F)F)C(=O)N1C[C@H]2[C@@H]([C@H]1C(=O)NN(C[C@@H]1CCNC1=O)C(=O)[C@H](F)Cl)C2(C)C` [Example 64, N-[(1S,2R)-1-[(1R,2S,5S)-2-[[[(2R)-2-chloro-2-fluoro-acetyl]-[[(3S)-2-oxopyrrolidin-3-yl]methyl]amino]carbamoyl]-6,6-dimethyl-3-azabicyclo[3.1.0]hexane-3-carbonyl]-2-methyl-butyl]-2,2,2-trifluoro-acetamide], the IC50 – broadly, the concentration at which inhibition is half-maximal – against HCoV-229E 3CLpro turned out to be 20 nM; against MERS-CoV 3CLpro it was 71 nM; on SARS-CoV 3CLpro, 12 nM; at SARS-CoV-2 3CLpro, 10 nM.

`CC(C)(C)C[C@H](NC(=O)C(F)(F)F)C(=O)N1C[C@H]2[C@@H]([C@H]1C(=O)NN(C[C@@H]1CCNC1=O)C(=O)[C@H](F)Cl)C2(C)C` [Example 66, N-[(1S)-1-[(1R,2S,5S)-2-[[[(2R)-2-chloro-2-fluoro-acetyl]-[[(3S)-2-oxopyrrolidin-3-yl]methyl]amino]carbamoyl]-6,6-dimethyl-3-azabicyclo[3.1.0]hexane-3-carbonyl]-3,3-dimethyl-butyl]-2,2,2-trifluoro-acetamide]: the IC50 on HCoV-229E 3CLpro came to 35 nM; against MERS-CoV 3CLpro, 141 nM; at SARS-CoV 3CLpro, 22 nM; on SARS-CoV-2 3CLpro, 10 nM.

In the case of `CC1(C)[C@@H]2[C@@H](C(=O)NN(C[C@@H]3CCNC3=O)C(=O)[C@H](F)Cl)N(C(=O)[C@H](Cc3ccncc3)NC(=O)C(F)(F)F)C[C@@H]21` [Example 67, N-[(1S)-2-[(1R,2S,5S)-2-[[[(2R)-2-chloro-2-fluoro-acetyl]-[[(3S)-2-oxopyrrolidin-3-yl]methyl]amino]carbamoyl]-6,6-dimethyl-3-azabicyclo[3.1.0]hexan-3-yl]-2-oxo-1-(4-pyridylmethyl)ethyl]-2,2,2-trifluoro-acetamide], the concentration for half-maximal inhibition (IC50) against HCoV-229E 3CLpro came to 28 nM; against MERS-CoV 3CLpro it was 84 nM; against SARS-CoV 3CLpro, 14 nM; against SARS-CoV-2 3CLpro, 10 nM.

Regarding `CC1([C@H](NC(=O)C(F)(F)F)C(=O)N2C[C@H]3[C@@H]([C@H]2C(=O)NN(C[C@@H]2CCNC2=O)C(=O)[C@H](F)Cl)C3(C)C)CC1` [Example 68, N-[(1S)-2-[(1R,2S,5S)-2-[[[(2R)-2-chloro-2-fluoro-acetyl]-[[(3S)-2-oxopyrrolidin-3-yl]methyl]amino]carbamoyl]-6,6-dimethyl-3-azabicyclo[3.1.0]hexan-3-yl]-1-(1-methylcyclopropyl)-2-oxo-ethyl]-2,2,2-trifluoro-acetamide], the half-inhibitory concentration (IC50) on HCoV-229E 3CLpro amounted to 23 nM; against MERS-CoV 3CLpro, 81 nM; on SARS-CoV 3CLpro, 14 nM; on SARS-CoV-2 3CLpro, 18 nM.

`CSCC[C@H](NC(=O)C(F)(F)F)C(=O)N1C[C@H]2[C@@H]([C@H]1C(=O)NN(C[C@@H]1CCNC1=O)C(=O)[C@H](F)Cl)C2(C)C` [Example 69, N-[(1S)-1-[(1R,2S,5S)-2-[[[(2R)-2-chloro-2-fluoro-acetyl]-[[(3S)-2-oxopyrrolidin-3-yl]methyl]amino]carbamoyl]-6,6-dimethyl-3-azabicyclo[3.1.0]hexane-3-carbonyl]-3-methylsulfanyl-propyl]-2,2,2-trifluoro-acetamide]: the half-maximal inhibitory concentration (IC50) at HCoV-229E 3CLpro stood at 53 nM; on MERS-CoV 3CLpro, 249 nM; at SARS-CoV 3CLpro it was 28 nM; against SARS-CoV-2 3CLpro, 11 nM.

As for `CC(C)(C)[C@H](NC(=O)C(Cl)Cl)C(=O)N1C[C@@H]2CCC[C@@H]2[C@H]1C(=O)NN(C[C@@H]1CCNC1=O)C(=O)[C@H](F)Cl` [Example 70, N-[(1S)-1-[(3S,3aS,6aR)-3-[[[(2R)-2-chloro-2-fluoro-acetyl]-[[(3S)-2-oxopyrrolidin-3-yl]methyl]amino]carbamoyl]-3,3a,4,5,6,6a-hexahydro-1H-cyclopenta[c]pyrrole-2-carbonyl]-2,2-dimethyl-propyl]-2,2-dichloro-acetamide], the concentration for half-maximal inhibition (IC50) against HCoV-229E 3CLpro amounted to 30 nM; against MERS-CoV 3CLpro, 101 nM; on SARS-CoV 3CLpro, 16 nM; against SARS-CoV-2 3CLpro, 7 nM.

For `CC(C)(C)[C@H](NC(=O)C(F)(F)C(F)(F)F)C(=O)N1C[C@@H]2CCC[C@@H]2[C@H]1C(=O)NN(C[C@@H]1CCNC1=O)C(=O)[C@H](F)Cl` [Example 71, N-[(1S)-1-[(3S,3aS,6aR)-3-[[[(2R)-2-chloro-2-fluoro-acetyl]-[[(3S)-2-oxopyrrolidin-3-yl]methyl]amino]carbamoyl]-3,3a,4,5,6,6a-hexahydro-1H-cyclopenta[c]pyrrole-2-carbonyl]-2,2-dimethyl-propyl]-2,2,3,3,3-pentafluoro-propanamide], the concentration for half-maximal inhibition (IC50) worked out at 19 nM against HCoV-229E 3CLpro, 41 nM on MERS-CoV 3CLpro, 10 nM at SARS-CoV 3CLpro and 7 nM on SARS-CoV-2 3CLpro.

Turning to `CC[C@H](NC(=O)C(F)(F)F)C(=O)N1C[C@@H]2CCC[C@@H]2[C@H]1C(=O)NN(C[C@@H]1CCNC1=O)C(=O)[C@H](F)Cl` [Example 72, N-[(1S)-1-[(3S,3aS,6aR)-3-[[[(2R)-2-chloro-2-fluoro-acetyl]-[[(3S)-2-oxopyrrolidin-3-yl]methyl]amino]carbamoyl]-3,3a,4,5,6,6a-hexahydro-1H-cyclopenta[c]pyrrole-2-carbonyl]propyl]-2,2,2-trifluoro-acetamide], the IC50 against HCoV-229E 3CLpro is 23 nM; on MERS-CoV 3CLpro, 58 nM; against SARS-CoV 3CLpro it was 11 nM; against SARS-CoV-2 3CLpro, 8 nM.

Take `CC[C@@H](C)[C@H](NC(=O)C(F)(F)F)C(=O)N1C[C@@H]2CCC[C@@H]2[C@H]1C(=O)NN(C[C@@H]1CCNC1=O)C(=O)[C@H](F)Cl` [Example 73, N-[(1S,2R)-1-[(3S,3aS,6aR)-3-[[[(2R)-2-chloro-2-fluoro-acetyl]-[[(3S)-2-oxopyrrolidin-3-yl]methyl]amino]carbamoyl]-3,3a,4,5,6,6a-hexahydro-1H-cyclopenta[c]pyrrole-2-carbonyl]-2-methyl-butyl]-2,2,2-trifluoro-acetamide]: the concentration for half-maximal inhibition (IC50) against HCoV-229E 3CLpro was 40 nM; against MERS-CoV 3CLpro it was 110 nM; against SARS-CoV 3CLpro, 12 nM; against SARS-CoV-2 3CLpro, 33 nM.

For the molecule `O=C1NCC[C@H]1CN(NC(=O)[C@@H]1[C@H]2CCC[C@H]2CN1C(=O)[C@@H](NC(=O)C(F)(F)F)C1CCC1)C(=O)[C@H](F)Cl` [Example 74, N-[(1S)-2-[(3S,3aS,6aR)-3-[[[(2R)-2-chloro-2-fluoro-acetyl]-[[(3S)-2-oxopyrrolidin-3-yl]methyl]amino]carbamoyl]-3,3a,4,5,6,6a-hexahydro-1H-cyclopenta[c]pyrrol-2-yl]-1-cyclobutyl-2-oxo-ethyl]-2,2,2-trifluoro-acetamide], the 50% inhibitory concentration (IC50) against HCoV-229E 3CLpro amounted to 117 nM; at MERS-CoV 3CLpro, 358 nM; against SARS-CoV 3CLpro, 45 nM; against SARS-CoV-2 3CLpro, 7 nM.

Consider `C[C@H](NC(=O)C(F)(F)F)C(=O)N1C[C@@H]2CCC[C@@H]2[C@H]1C(=O)NN(C[C@@H]1CCNC1=O)C(=O)[C@H](F)Cl` [Example 75, N-[(1S)-2-[(3S,3aS,6aR)-3-[[[(2R)-2-chloro-2-fluoro-acetyl]-[[(3S)-2-oxopyrrolidin-3-yl]methyl]amino]carbamoyl]-3,3a,4,5,6,6a-hexahydro-1H-cyclopenta[c]pyrrol-2-yl]-1-methyl-2-oxo-ethyl]-2,2,2-trifluoro-acetamide], for which the IC50 against HCoV-229E 3CLpro was found to be 33 nM; on MERS-CoV 3CLpro it was 83 nM; at SARS-CoV 3CLpro, 12 nM; against SARS-CoV-2 3CLpro, 12 nM.

Turning to `CC[C@@H](C)[C@H](NC(=O)C(C)(F)F)C(=O)N1C[C@@H]2CCC[C@@H]2[C@H]1C(=O)NN(C[C@@H]1CCNC1=O)C(=O)[C@H](F)Cl` [Example 76, N-[(1S,2R)-1-[(3S,3aS,6aR)-3-[[[(2R)-2-chloro-2-fluoro-acetyl]-[[(3S)-2-oxopyrrolidin-3-yl]methyl]amino]carbamoyl]-3,3a,4,5,6,6a-hexahydro-1H-cyclopenta[c]pyrrole-2-carbonyl]-2-methyl-butyl]-2,2-difluoro-propanamide], the IC50 on HCoV-229E 3CLpro came out at 88 nM; at MERS-CoV 3CLpro, 194 nM; against SARS-CoV 3CLpro, 15 nM; on SARS-CoV-2 3CLpro, 8 nM.

Take `CCC(CC)[C@H](NC(=O)C(F)(F)F)C(=O)N1C[C@@H]2CCC[C@@H]2[C@H]1C(=O)NN(C[C@@H]1CCNC1=O)C(=O)[C@H](F)Cl` [Example 77, N-[(1S)-1-[(3S,3aS,6aR)-3-[[[(2R)-2-chloro-2-fluoro-acetyl]-[[(3S)-2-oxopyrrolidin-3-yl]methyl]amino]carbamoyl]-3,3a,4,5,6,6a-hexahydro-1H-cyclopenta[c]pyrrole-2-carbonyl]-2-ethyl-butyl]-2,2,2-trifluoro-acetamide]: the concentration for half-maximal inhibition (IC50) came out at 28 nM against HCoV-229E 3CLpro, 69 nM against MERS-CoV 3CLpro, 12 nM at SARS-CoV 3CLpro and 7 nM against SARS-CoV-2 3CLpro.

Turning to `CCC[C@H](NC(=O)C(F)(F)F)C(=O)N1C[C@@H]2CCC[C@@H]2[C@H]1C(=O)NN(C[C@@H]1CCNC1=O)C(=O)[C@H](F)Cl` [Example 78, N-[(1S)-1-[(3S,3aS,6aR)-3-[[[(2R)-2-chloro-2-fluoro-acetyl]-[[(3S)-2-oxopyrrolidin-3-yl]methyl]amino]carbamoyl]-3,3a,4,5,6,6a-hexahydro-1H-cyclopenta[c]pyrrole-2-carbonyl]butyl]-2,2,2-trifluoro-acetamide], the IC50 against HCoV-229E 3CLpro amounted to 23 nM; against MERS-CoV 3CLpro, 57 nM; at SARS-CoV 3CLpro, 10 nM; on SARS-CoV-2 3CLpro, 9 nM.

Consider `CC[C@H](C)[C@H](NC(=O)C1(F)CC1)C(=O)N1C[C@@H]2CCC[C@@H]2[C@H]1C(=O)NN(C[C@@H]1CCNC1=O)C(=O)[C@H](F)Cl` [Example 79, N-[(1S,2S)-1-[(3S,3aS,6aR)-3-[[[(2R)-2-chloro-2-fluoro-acetyl]-[[(3S)-2-oxopyrrolidin-3-yl]methyl]amino]carbamoyl]-3,3a,4,5,6,6a-hexahydro-1H-cyclopenta[c]pyrrole-2-carbonyl]-2-methyl-butyl]-1-fluoro-cyclopropanecarboxamide], for which the IC50 against HCoV-229E 3CLpro was 39 nM; on MERS-CoV 3CLpro it was 114 nM; at SARS-CoV 3CLpro, 11 nM; on SARS-CoV-2 3CLpro it was 7.1 nM.

The values are drawn from US20250059171A1 (Hoffmann-La Roche Inc., priority 2021, published 2025).
